Series [1] concerns O3-induced pulmonary inflammation. The series is described as follows: O3-induced lung injury/pulmonary inflammation model, endotracheal administration, BALF analysis. Format: in vivo, mice. As to the method: Because of the clinical relevance of environmental ozone exposure, and the experience of our team, with the murine model of O3-induced LI, pulmonary inflammation, and/or AHR, we have evaluated the anti-inflammatory efficacy of our PC-NSAID formulations using this robust model system. In these studies, all mice were pre-dosed (via endotracheal administration) with vehicle, indomethacin (at a dose range from 2 mg/kg), ibuprofen (5 mg/kg) or the equivalent (NSAID) doses of the PC-NSAID compositions, 1 h before and 1.5 hours after being exposed to either filtered room air or O3 (2 ppm) for 3 h and then 6 h or 24 h following the cessation of exposure airway pulmonary injury and inflammation were assessed by euthanizing the animals and collecting bronchoalveolar lavage fluid (BALF) using standard techniques. The O3 exposure protocol were chosen to allow for comparison with data of other investigators studying acute O3-induced pulmonary inflammation/AHR in mice.
In these studies, all mice were pre-dosed with vehicle (PBS), NSAID (indomethacin or ibuprofen) (at a dose of 2 mg NSAID/kg), or the equivalent (NSAID) dose of the corresponding PC-NSAID composition using an endo-tracheal delivery method refined that we refined (25 μL/rat) 1 h before and 90 minutes after being exposed to either filtered room air or O3 (2 ppm) for 3 h. The PC-Indomethacin composition was prepared dissolving indomethacin and purified PC (Phospholipon 90G from Lipoid) in a polar solvent (such as acetone), followed by vacuum removal of the solvent to form a purified PC-NSAID oil composition. This purified PC-NSAID oil composition is then added to an amount of phosphate buffered saline (PBS) followed by 30 minutes of sonication to provide a uniform composition at the appropriate dose for intra-tracheal administration. In some experiments, we prepared the PC-Indomethacin composition using Lipoid S-100 (a highly purified >98% soy PC product, as recommended by the manufacturer) instead of Phospholipon 90G, as well as comparing the effects of the purified soy PC products (S-100 and 90G) alone. […] Twenty-four hours (24 h) following the cessation of O3 exposure, pulmonary injury and inflammation were assessed by euthanizing the animals and collecting bronchoalveolar lavage (BALE) fluid using standard techniques. The collected BALF samples were centrifuged (with the cell pellet analyzed for white cells) and the supernatant analyzed for protein and prostaglandin E2, all markers of pulmonary inflammation.
The concentration of total BALF protein has been determined spectrophotometrically according to the Bradford protein assay procedure (Bio-Rad Laboratories, Inc.; Hercules, Calif.) while the levels of IL-6, MIP-2, PGE2 in the BALF are determined using a commercially available ELISA kit (Immunology Consultants Laboratories, Inc., Newberg, Oreg.), and MPO activity (by enzymatic kit provided CytoStore) in accordance to the manufacturer's instructions. Pulmonary inflammation has been determined by assessing the BALF cell differentials on Cytospin cytocentrifuge preparations. Hemoglobin has been measured by the benzidine assay.
We used a modification the protocol employed in pilot studies. In these earlier experiments, mice were pre-dosed with phosphate buffered saline (PBS) vehicle, the test NSAID (indomethacin or ibuprofen) (at a dose of 2 mg or 5 mg NSAID/kg), PC (4 mg/k or 10 mg/kg), respectively, or the equivalent (NSAID) dose of the PC-NSAID complex using an endotracheal delivery method refined in our lab (25 μL/rat) 1 h before and 90 minutes after being exposed to either filtered room air or O3 (2 ppm) for 3 h.

Series [2] shares this test system. Kind of series: O3-induced pulmonary inflammation model, parenteral administration, BALF analysis. It is filed as in vivo, mice. The settings on record: 10 mg/kg, BALF 24 h post exposure, FIG. 2, pilot study. The method, then: Using the O3-induced pulmonary inflammation model, we have evaluated and compared the anti-inflammatory efficacy of PC-Indomethacin vs indomethacin administered parenterally at a dose of 10 mg/kg vs vehicle control and evaluated the BALF 24 h post exposure. The white cell counts and protein concentrations of the BALF of the test groups are depicted in FIG. 2.

Series [3] in a line: Storage stability of PC-NSAID oil and reconstituted dispersions. The settings on record: dispersed in sodium bicarbonate buffer, stored at 4° C., FIG. 8. It is filed as physicochemical. As to the method:
The proprietary method used to prepare the purified PC-NSAIDs takes advantage of the fact that pre-dissolving indomethacin (or ibuprofen) in acetone beforehand markedly increases the solubility of PC in this polar solvent (normally PC has a very limited solubility in acetone). Thereby the NSAID and purified soy PC (Lipoid S-100) (1:1 PC to NSAID molar ratio, which correspond to 2:1 PC to NSAID weight ratio) are dissolved in acetone, in this order and incubated at 40° C. until the solution clarifies. This solution is then placed in a rotor-evaporator for at least 12 hours to remove the volatile solvent. In the case of disaturated PC, such as dipalmitoyl-PC (DPPC) (which is the major phospholipid in pulmonary surfactant) we have learned that it is important to have 2-4 times more NSAID than PC (on a molar basis) to drive the solubility of the DPPC into the polar solvent. […] With the advice of the soy lecithin manufacturer (Lipoid Inc., Heidelberg, Germany) we are transitioning to their more purified soy lecithin product (Lipoid S-100) which already is approved for parenteral administration. […] FIGS. 10-13 indicate that these PC-NSAID formulations can readily be aerosolized into particles having a diameter between 2-6 μm for deep lung deposition.

Where [4] appears, read: ozone-exposed mice (2 ppm, 3 h), endotracheal dosing 1 h before and 90 min after, BALF 24 h post-exposure, *=p<0.05 vs air.

This is an account of results in patent publication US20130281405A1, “USE OF PC-NSAIDS TO TREAT AND/OR PREVENT PULMONARY INFLAMMATION” (priority 2012, published 2013).

Turning to `COc1ccc2c(c1)c(CC(=O)O)c(C)n2C(=O)c1ccc(Cl)cc1` [Indomethacin, indomethacin], in series [1] (O3-exposed mice, endotracheal, BALF 24 h post, FIG. 3 (indomethacin), FIG. 9A (ibuprofen, PC is DPPC)), the “white cell count in BALF, effect in words” value is recorded as “increased white cell count relative to vehicle”. The “protein concentration of BALF, effect in words” value in series [1] (O3-exposed mice, endotracheal, BALF 24 h post, FIG. 4 (indomethacin), FIG. 9B (ibuprofen, PC is DPPC)) is given as “did not cause a similar effect”. Further, the “PGE2 concentration in BALF, effect in words” value in series [1] (O3-exposed mice, endotracheal, FIG. 6 (indomethacin), FIG. 9D (ibuprofen, PC is DPPC)) is reported as “statistically significant effect to markedly inhibit”. In series [1] (setting [4]), the “BALF Cell Number” value is 163 ± 53*, the “BALF MPO” value is 2.12 ± 0.43* ng/mL, the “BALF PGE2” value turned out to be 274 ± 141 pg/mL and the “BALF Protein” value is reported as 796 ± 135* μg/mL. Besides, in series [2], the “white cell counts and protein concentrations of the BALF (index of O3-induced pulmonary inflammation)” value is on record as “appeared to inhibit”. For the same compound, the “stability in sodium bicarbonate buffer” value in series [3] is “degrades over time”.
